Patent US7964624B1, “Inhibitors of serine proteases” (priority 2005, dated 2011)

Columns and labels:
[1] = molecular target: T1, full-length hepatitis C viral protein NS3•4A (Hepatitis C virus genotype 1a, UniProt P27958); assay: biochemical; set-up: species or system HCV sub-type strain 1a; conditions: Enzyme Assay 2 (HCV NS3 Peptide Cleavage Assay) activity, apparent Ki class
T1 construct: hexa-histidine (N); made in house; host or cells: Sf9 insect cells (baculovirus, pVL1392)

[2] = molecular target: T2, HCV NS3 protease domain (Hepatitis C virus genotype 1b, UniProt Q9WMX2); assay: biochemical; conditions: Enzyme Assay 1 (HCV NS3 Protease Domain Peptide Cleavage Assay) activity, apparent Ki class
T2 construct: The first 181 amino acids of NS3 (residues 1027-1207 of the viral polyprotein); hexa-histidine (C); made in house; host or cells: E. coli BL21/DE3 pLysS

Row | SMILES | Ki [1] [µM] | Ki [2] [µM]
1 | CCC[C@H](NC(=O)[C@@H]1C[C@]2(CC(c3cc(Cl)c(OC)cc3OC)=NO2)CN1C(=O)[C@@H](NC(=O)CC1CCCCC1)C(C)(C)C)C(=O)C(=O)NC1CC1 [Compound 307] | < 0.1 | 0.1 to 0.5
2 | CCC[C@H](NC(=O)[C@@H]1C[C@]2(CC(c3cccc(Cl)c3)=NO2)CN1C(=O)CCNS(=O)(=O)c1ccc(NC(C)=O)cc1)C(=O)C(=O)NC1CC1 [Compound 309] | > 0.5 | > 0.5
3 | CCC[C@H](NC(=O)[C@@H]1C[C@]2(CC(c3cnc(OC)c(Cl)c3)=NO2)CN1C(=O)[C@@H](NC(=O)CC1CCCCC1)C(C)(C)C)C(=O)C(=O)NC1CC1 [Compound 312] | < 0.1 | < 0.1
4 | CCC[C@H](NC(=O)[C@@H]1C[C@]2(CC(c3cc(Cl)c4c(c3)OCCN4C)=NO2)CN1C(=O)[C@@H](NC(=O)CC1CCCCC1)C(C)(C)C)C(=O)C(=O)NC1CC1 [Compound 315] | < 0.1 | < 0.1
5 | CC(C)(C)OC(=O)N[C@H]1CCCCC/C=C\[C@@H]2C[C@@]2(C(=O)O)NC(=O)[C@@H]2C[C@]3(CC(C(=O)c4ccccc4)=NO3)CN2C1=O [Compound 320] | > 0.5 | > 0.5
6 | CCC[C@H](NC(=O)[C@@H]1C[C@]2(CC(c3cc(Cl)cc(OC)c3OC)=NO2)CN1C(=O)[C@@H](NC(=O)CC1CCCCC1)C(C)(C)C)C(=O)C(=O)NC1CC1 [Compound 321] | < 0.1 | 0.1 to 0.5
7 | CCC[C@H](NC(=O)[C@@H]1C[C@]2(CC(c3cc(Cl)c(OC)cc3OC)=NO2)CN1C(=O)[C@@H](NC(=O)CC1CCOCC1)C(C)(C)C)C(=O)C(=O)NC1CC1 [Compound 326] | 0.1 to 0.5 | 0.1 to 0.5
8 | CCC[C@H](NC(=O)[C@@H]1C[C@]2(CC(c3cccc(Cl)c3)=NO2)CN1C(=O)c1cccc(S(=O)(=O)N2CCc3ccccc3C2)c1)C(=O)C(=O)NC1CC1 [Compound 328] | > 0.5 | > 0.5
9 | CCC[C@H](NC(=O)[C@@H]1C[C@]2(CC(c3cccc(Cl)c3)=NO2)CN1C(=O)[C@H](Cc1ccc(OC(C)C)cc1)NC(C)=O)C(=O)C(=O)NC1CC1 [Compound 332] | 0.1 to 0.5 | > 0.5
10 | CCC[C@H](NC(=O)[C@@H]1C[C@]2(CC(c3cccc(Cl)c3)=NO2)CN1C(=O)[C@H](Cc1csc2ccccc12)NC(=O)CC1CCCCC1)C(=O)C(=O)NC1CC1 [Compound 336] | > 0.5 | > 0.5
11 | CCC[C@H](NC(=O)[C@@H]1C[C@]2(CC(c3cccc(Cl)c3)=NO2)CN1C(=O)[C@H](Cc1ccccc1F)NC(=O)CC1CCCCC1)C(=O)C(=O)NC1CC1 [Compound 338] | 0.1 to 0.5 | > 0.5
12 | CCC[C@H](NC(=O)[C@@H]1C[C@]2(CC(c3cccc(Cl)c3)=NO2)CN1C(=O)[C@@H](NC(=O)Cc1cncc(Br)c1)C(C)(C)C)C(=O)C(=O)NC1CC1 [Compound 339] | < 0.1 | 0.1 to 0.5
13 | CCC[C@H](NC(=O)[C@@H]1C[C@]2(CC(c3cccc(Cl)c3)=NO2)CN1C(=O)[C@@H](NC(=O)CC1CCCCC1)C(C)(C)C)C(=O)C(=O)N1CCC[C@@H]1COC [Compound 347] | > 0.5 | > 0.5
14 | CCC[C@H](NC(=O)[C@@H]1C[C@]2(CC(c3cccc(Cl)c3)=NO2)CN1C(=O)[C@@H](NC(=O)CC1CCCCC1)C(C)(C)C)C(=O)C(=O)N(C)CCC [Compound 350] | > 0.5 | > 0.5
15 | CCC[C@H](NC(=O)[C@@H]1C[C@]2(CC(c3cccc(Cl)c3)=NO2)CN1C(=O)CC(C)(C)C)C(=O)C(=O)NC1CC1 [Compound 351] | > 0.5 | > 0.5
16 | CCC[C@H](NC(=O)[C@@H]1C[C@]2(CC(c3cccc(Cl)c3)=NO2)CN1C(=O)[C@@H](NC(=O)CC1CCC(C)CC1)C(C)(C)C)C(=O)C(=O)NC1CC1 (stereo partly drawn) [Compound 361] | < 0.1 | 0.1 to 0.5
17 | CCC[C@H](NC(=O)[C@@H]1C[C@]2(CC(c3cc(C)c(OC)c(C)c3)=NO2)CN1C(=O)[C@@H](NC(=O)CC1CCCCC1)C(C)(C)C)C(=O)C(=O)NC1CC1 [Compound 362] | < 0.1 | 0.1 to 0.5
18 | CCC[C@H](NC(=O)[C@@H]1C[C@]2(CC(c3cc(Cl)c(OC)cc3C)=NO2)CN1C(=O)[C@@H](NC(=O)CC1CCCCC1)C(C)(C)C)C(=O)C(=O)NC1CC1 [Compound 366] | < 0.1 | 0.1 to 0.5
19 | CCC[C@H](NC(=O)[C@@H]1C[C@]2(CC(c3cc(Cl)c4c(c3)OCO4)=NO2)CN1C(=O)[C@@H](NC(=O)CC1CCCCC1)C(C)(C)C)C(=O)C(=O)NC1CC1 [Compound 370] | < 0.1 | 0.1 to 0.5
20 | CCC[C@H](NC(=O)[C@@H]1C[C@]2(CC(c3cccc(Cl)c3)=NO2)CN1C(=O)[C@@H](NC(=O)CC1CCCCC1)C(C)(C)C)C(=O)C(=O)NC1CCCC1 [Compound 372] | 0.1 to 0.5 | 0.1 to 0.5
21 | CCC[C@H](NC(=O)[C@@H]1C[C@]2(CC(c3cccc(Cl)c3)=NO2)CN1C(=O)CCn1c(=O)oc2ccccc21)C(=O)C(=O)NC1CC1 [Compound 376] | > 0.5 | > 0.5

Row | SMILES | Ki [1] [µM] | Ki [2] [µM]
22 | CCC[C@H](NC(=O)[C@@H]1C[C@]2(CC(c3cccc(Cl)c3)=NO2)CN1C(=O)[C@@H](NC(=O)[C@@H]1CCC(=O)N1Cc1cccc(Cl)c1)C(C)(C)C)C(=O)C(=O)NC1CC1 [Compound 377] | < 0.1 | 0.1 to 0.5
23 | C=C[C@@H]1C[C@]1(NC(=O)[C@@H]1C[C@]2(CC(c3cccc(Cl)c3)=NO2)CN1C(=O)[C@@H](NC(=O)CC1CCOCC1)C(C)(C)C)C(=O)O [Compound 384] | > 0.5 | > 0.5
24 | CC(C)(C)[C@H](NC(=O)CC1CCCCC1)C(=O)N1C[C@@]2(CC(c3cccc(Cl)c3)=NO2)C[C@H]1C(=O)N[C@@H](CC1CC1)C(=O)C(N)=O [Compound 388] | < 0.1 | < 0.1
25 | CCC[C@H](NC(=O)[C@@H]1C[C@]2(CC(c3cccc(Cl)c3)=NO2)CN1C(=O)CC(NS(=O)(=O)c1ccc(OC)cc1)C(C)C)C(=O)C(=O)NC1CC1 (stereo partly drawn) [Compound 395] | > 0.5 | > 0.5
26 | CCC[C@H](NC(=O)[C@@H]1C[C@]2(CC(c3cccc(Cl)c3)=NO2)CN1C(=O)CN1C(=O)OC[C@@H]1c1ccccc1)C(=O)C(=O)NC1CC1 [Compound 397] | > 0.5 | > 0.5
27 | CCC[C@H](NC(=O)[C@@H]1C[C@]2(CC(c3cccc(Cl)c3)=NO2)CN1C(=O)[C@@H](NC(=O)CC1CCCCC1)C(C)(C)C)C(=O)C(=O)NC1(C(=O)OC)CC1 [Compound 399] | > 0.5 | > 0.5
28 | CCC[C@H](NC(=O)[C@@H]1C[C@]2(CC(c3cccc(Cl)c3)=NO2)CN1C(=O)[C@@H](NC(=O)CC1CCCCC1)C(C)(C)C)C(=O)C(=O)NC1CCC1 [Compound 401] | 0.1 to 0.5 | 0.1 to 0.5
29 | CCC[C@H](NC(=O)[C@@H]1C[C@]2(CC(c3cccc(Cl)c3)=NO2)CN1C(=O)[C@@H](NC(=O)CC1CCCCC1)C(C)(C)C)C(=O)C(=O)NCCOC [Compound 404] | 0.1 to 0.5 | > 0.5
30 | CCC[C@H](NC(=O)[C@@H]1C[C@]2(CC(c3cccc(Cl)c3)=NO2)CN1C(=O)[C@@H](NC(=O)CC1CCCCC1)C(C)(C)C)C(=O)C(=O)NCc1cccnc1 [Compound 408] | 0.1 to 0.5 | > 0.5
31 | CCC[C@H](NC(=O)[C@@H]1C[C@]2(CC(c3cccc(Cl)c3)=NO2)CN1C(=O)[C@@H](NC(=O)CC1CCCCC1)C(C)(C)C)C(=O)C(=O)N1CCOCC1 [Compound 410] | > 0.5 | > 0.5
32 | CCC[C@H](NC(=O)[C@@H]1C[C@]2(CC(c3cc(F)c(OCC)c(Cl)c3)=NO2)CN1C(=O)[C@@H](NC(=O)CC1CCOCC1)C(C)(C)C)C(=O)C(=O)NC1CC1 [Compound 411] | < 0.1 | 0.1 to 0.5
33 | CCC[C@H](NC(=O)[C@@H]1CC2(CC(c3cccc(Cl)c3)=NO2)CN1C(=O)[C@H](Cc1ccc(O)cc1)NC(C)=O)C(=O)C(=O)NC1CC1 (stereo partly drawn) [Compound 412] | 0.1 to 0.5 | 0.1 to 0.5
34 | CCC[C@H](NC(=O)[C@@H]1C[C@]2(CC(c3cccc(Cl)c3)=NO2)CN1C(=O)[C@@H](NS(=O)(=O)c1ccc(Cl)cc1)C(C)CC)C(=O)C(=O)NC1CC1 (stereo partly drawn) [Compound 416] | 0.1 to 0.5 | > 0.5
35 | CNC(=O)C(=O)C(CC1CCC1)NC(=O)[C@@H]1C[C@]2(CC(c3cccc(Cl)c3)=NO2)CN1C(=O)[C@@H](NC(=O)CC1CCOC(C)(C)C1)C(C)(C)C (stereo partly drawn) [Compound 419] | 0.1 to 0.5 | 0.1 to 0.5
36 | CCC[C@H](NC(=O)[C@@H]1C[C@]2(CC(c3cccc(Cl)c3)=NO2)CN1C(=O)c1[nH]c2ccccc2c1CC(=O)N(CC)CC)C(=O)C(=O)NC1CC1 [Compound 420] | > 0.5 | > 0.5
37 | CCC[C@H](NC(=O)[C@@H]1C[C@]2(CC(c3cccc(Cl)c3)=NO2)CN1C(=O)[C@@H](NC(=O)CC1CCCCC1)C(C)(C)C)C(=O)C(=O)N1CC(C)(O)C1 [Compound 426] | 0.1 to 0.5 | > 0.5
38 | CCC[C@H](NC(=O)[C@@H]1C[C@]2(CC(c3cccc(Cl)c3)=NO2)CN1C(=O)[C@@H](NC(=O)CC1CCCCC1)C(C)(C)C)C(=O)C(=O)NC1(c2ccccc2)CC1 [Compound 429] | > 0.5 | > 0.5
39 | CCC[C@H](NC(=O)[C@@H]1C[C@]2(CC(c3cc(Cl)c4c(c3)CCCN4C)=NO2)CN1C(=O)[C@@H](NC(=O)CC1CCCCC1)C(C)(C)C)C(=O)C(=O)NC1CC1 [Compound 430] | < 0.1 | 0.1 to 0.5
40 | CCC[C@H](NC(=O)[C@@H]1C[C@]2(CC(c3cccc(Cl)c3)=NO2)CN1C(=O)[C@@H](NC(=O)CC1CCCCC1)C(C)(C)C)C(=O)C(=O)NCc1cc(-c2ccc(Cl)cc2)no1 [Compound 433] | > 0.5 | > 0.5
41 | CCC[C@H](NC(=O)[C@@H]1C[C@]2(CC(c3cccc(Cl)c3)=NO2)CN1C(=O)[C@H](CSC(C)(C)C)NC(=O)CC1CCCCC1)C(=O)C(=O)NC1CC1 [Compound 437] | > 0.5 | > 0.5
42 | C=C[C@@H]1C[C@]1(NC(=O)[C@@H]1C[C@]2(CC(CC)=NO2)CN1C(=O)[C@@H](NC(=O)OC1CCCC1)C(C)(C)C)C(=O)NS(=O)(=O)C1CC1 [Compound 438] | 0.1 to 0.5 | > 0.5
